Results from paper PMC10010643 (Cancer Chemotherapy and Pharmacology, 2023).
Read-outs that look alike come from different tables or passages of the source.

Experiments:
[1] = Urine PK, Part A single oral doses in healthy participants; type: in vivo, human; conditions: for CL renal: human
Experimental: A further two cohorts were recruited. […] Each individual participated in one treatment period only, with the exception of the food-effect cohort (cohort A3) in which there were two treatment periods separated by at least 7 days washout. Participants resided at the Clinical Research Unit (CRU) from 1 day ahead of dosing (day − 1) to day 3 and returned for a follow-up visit 5–7 days after their final dose. For all cohorts, doses were administered in the fasted state in the morning of day 1 of Treatment Period 1. In the food-effect cohort, doses were given 30 min after the start of a high-fat breakfast (973 calories total: approximately 150 protein calories, 250 carbohydrate calories, and 500–600 fat calories) on day 1 of Treatment Period 2. For cohorts A1 to A5 in Treatment Period 1, dosing occurred such that one pair (one active and one placebo) were dosed at least 24 h before the remaining participants. Continuation to dose those who remained was at the investigator’s discretion. Escalating doses were administered following satisfactory sponsor and investigator review of the safety and tolerability data (up to 48 h post-final dose) and PK data (up to 24 h post-final dose) from the lower dose levels.
Urine was collected by spot collection in Part A only before dosing and between 0–6, 6–12, 12–24, and 24–48 h post-dose. Blood and urine aliquots were stored in polypropylene tubes at − 70 °C until bioanalysis.
Noncompartmental PK analysis was performed on individual plasma and urine concentration data, using Phoenix® WinNonlin® 8.1 software (Certara USA Inc., Princeton NJ). Plasma PK parameter endpoints for Part A included area under the plasma concentration–time curve (AUC) from time 0 to infinity (AUC0–∞), AUC from time 0 to the time of the last quantifiable concentration (AUC0–tlast), maximum observed plasma concentration (Cmax), time of the maximum observed plasma concentration (Tmax), terminal half-life in plasma (t½), apparent total plasma clearance (CL/F), and apparent volume of distribution (Vz/F). Urine PK parameters calculated in Part A included amount of drug excreted in urine (Ae), percentage of dose excreted unchanged in urine (fe) and renal clearance (CLR).

[2] = Maximum recommended starting dose in humans from preclinical studies; parameters: species or system human
Experimental: A starting dose of 5 mg was chosen as this was approximately twofold lower than the maximum recommended starting dose (MRSD) in humans of 9.6 mg determined from the results of a murine PD study, and was therefore not expected to have any pharmacological activity. This dose was also more than 30-fold lower than the MRSD of 162 mg calculated from the no observed adverse effect level in the toxicology species (mouse and dog).

[3] = tested on: human liver stellate cell line; parameters: method as in PMID 36154172; conditions: in vitro; cited from earlier work
liver fibrosis = tested on: liver fibrosis; parameters: method as in PMID 36154172; conditions: CCl4-induced; cited from earlier work
[4] = tested on: programmed cell death protein 1 and PD-L1; conditions: pembrolizumab and atezolizumab; cited from earlier work
[5] = single dose 5 mg (1 × 5 mg), fasted
[6] = single dose 20 mg (4 × 5 mg), fasted
[7] = single dose 50 mg (1 × 50 mg), fasted
[8] = single dose 50 mg (1 × 50 mg), fed
[9] = single dose 50 mg (10 × 5 mg), fasted
[10] = single dose 100 mg (2 × 50 mg), fasted
[11] = single dose 200 mg (4 × 50 mg), fasted
[12] = single dose 400 mg (8 × 50 mg), fasted

SMILES: OC[C@H]1O[C@H](Sc2cncc(Br)c2)[C@H](O)[C@@H](n2cc(-c3cc(F)c(F)c(F)c3)nn2)[C@H]1O [GB1211]
- Geometric mean fe(0–48 h), range across doses ([1]; 5–50 mg dose range (5 mg capsule)): 26.8–30.0%
- Geometric mean fe(0–48 h), range across doses ([1]; 50–400 mg dose range (50 mg capsules; fasted state)): 10.5–18.7%
- Renal elimination mechanism ([1]; CLR greater than GFR corrected for fu): undergoes active secretion in the kidney
- Glomerular filtration rate corrected for the fraction of unbound GB1211 in plasma ([1]; GFR approximately 7.5 L/h, fu 5.34%): approximately 0.4 L/h
- CL renal ([1]; urine and plasma, po, single oral dose, read-out: Geometric mean CLR, range across all doses): 30.5 to 44.5 mL/min
- CL renal ([1]; urine, oral, 5 mg, single dose 5 mg (1 × 5 mg), fasted, read-out: CLR, geometric mean (CV%) (converted)): 35.3 mL/min
- CL renal ([1]; urine, oral, 20 mg, single dose 20 mg (4 × 5 mg), fasted, read-out: CLR, geometric mean (CV%) (converted)): 31.7 mL/min
- CL renal ([1]; urine, oral, 50 mg, single dose 50 mg (1 × 50 mg), fasted, read-out: CLR, geometric mean (CV%) (converted)): 37.3 mL/min
- CL renal ([1]; urine, oral, 50 mg, single dose 50 mg (1 × 50 mg), fed, read-out: CLR, geometric mean (CV%) (converted)): 36.7 mL/min
- CL renal ([1]; urine, oral, 50 mg, single dose 50 mg (10 × 5 mg), fasted, read-out: CLR, geometric mean (CV%) (converted)): 32.3 mL/min
- CL renal ([1]; urine, oral, 100 mg, single dose 100 mg (2 × 50 mg), fasted, read-out: CLR, geometric mean (CV%) (converted)): 43.2 mL/min
- CL renal ([1]; urine, oral, 200 mg, single dose 200 mg (4 × 50 mg), fasted, read-out: CLR, geometric mean (CV%) (converted)): 30.5 mL/min
- CL renal ([1]; urine, oral, 400 mg, single dose 400 mg (8 × 50 mg), fasted, read-out: CLR, geometric mean (CV%) (converted)): 44.5 mL/min
- Ae (0–48 h), geometric mean (CV%) [1, 5]: 1.43 (27.0) mg
- fe (0–48 h), geometric mean (CV%) [1, 5]: 28.7 (27.0) %
- Ae (0–48 h), geometric mean (CV%) [1, 6]: 6.00 (19.7) mg
- fe (0–48 h), geometric mean (CV%) [1, 6]: 30.0 (19.7) %
- Ae (0–48 h), geometric mean (CV%) [1, 7]: 9.34 (44.1) mg
- fe (0–48 h), geometric mean (CV%) [1, 7]: 18.7 (44.1) %
- Ae (0–48 h), geometric mean (CV%) [1, 8]: 10.9 (33.5) mg
- fe (0–48 h), geometric mean (CV%) [1, 8]: 21.7 (33.5) %
- Ae (0–48 h), geometric mean (CV%) [1, 9]: 13.4 (38.7) mg
- fe (0–48 h), geometric mean (CV%) [1, 9]: 26.8 (38.7) %
- Ae (0–48 h), geometric mean (CV%) [1, 10]: 15.3 (34.8) mg
- fe (0–48 h), geometric mean (CV%) [1, 10]: 15.3 (34.8) %
- Ae (0–48 h), geometric mean (CV%) [1, 11]: 21.0 (28.0) mg
- fe (0–48 h), geometric mean (CV%) [1, 11]: 10.5 (28.0) %
- Ae (0–48 h), geometric mean (CV%) [1, 12]: 50.7 (33.6) mg
- fe (0–48 h), geometric mean (CV%) [1, 12]: 12.7 (33.6) %
- Maximum recommended starting dose (MRSD) ([2]; calculated from the no observed adverse effect level in the toxicology species (mouse and dog)): 162 mg
- Maximum recommended starting dose (MRSD) in humans ([2]; determined from the results of a murine PD study): 9.6 mg
- TGFβ-induced fibrosis gene expression [3]: inhibiting TGFβ-induced fibrosis gene expression
- Fibrosis in vivo, liver (liver fibrosis): reducing fibrosis
- Galectin-3-induced inhibition of immune checkpoint inhibitor binding [4]: reverses
